Experimental data from patent US20250144131A1, “POLYSACCHARIDE COMPOUND WITH A DEFINED MOLECULAR STRUCTURE FOR THE TREATMENT OF PULMONARY FIBROSIS” (SHENZHEN YANDAI INVESTMENT CO., LTD, priority 2023, published 2025).
Marks after values point to notes of the source that are not given here.

Tests used:
[1] = design: species or system C57 mice; settings: mouse, in vivo, 130 mg/kg
Method: Spleen and thymus organ coefficients: After the last dose, spleen, thymus, and tumor weights are measured, and organ coefficients are calculated. organ coefficient (%)=organ weight/fasting body weight×100%.

[2] = Hematological and liver/kidney function tests (WBC, RBC, ALT, AST, BUN, CRE) in LLC-bearing mice
Method: (§1) LLC cells in logarithmic growth phase at 1×10^7/mL were inoculated at 0.2 mL into the right axilla of 10 purchased normal male C57 mice. Tumor growth was monitored, and tumor-bearing mice were prepared. Once the tumor volume in tumor-bearing mice exceeded 200 mm^3, the tumor tissue was aseptically harvested to prepare a tissue cell suspension. This was mixed at a 1:1 (V:V) ratio with culture medium to create a tumor tissue homogenate. This homogenate was injected into the right axilla of 60 male C57 mice at 0.2 mL per mouse. When the tumor volume in these tumor-bearing mice exceeded 100 mm^3, mice with well-grown tumors without ulceration were selected and randomized into groups based on tumor volume as follows: model control group, cisplatin group (4 mg/kg), Kanglaite soft capsule group (1,404 mg/kg), cisplatin+Kanglaite soft capsule group (4+1,404 mg/kg), cisplatin+GLP-4 low-dose group (4+130 mg/kg), and cisplatin+GLP-4 high-dose group (4+1,170 mg/kg), with 8 mice per group. Additionally, 8 mice were selected as a normal control group. The cisplatin group received intraperitoneal injections of cisplatin, and the other groups were administered their respective drug solutions by gavage (20 mL/kg) or intraperitoneal injection (10 mL/kg), once daily for 27 consecutive days. After the last dose, blood was collected from the orbital plexus to test blood WBC, RBC, liver and kidney function indicators (ALT, AST, BUN, CRE), and CD3^+, CD4^+, and CD8^+ levels. Bone marrow smears were examined, and spleens, thymuses, and tumors were weighed. Histopathological examinations were conducted on the tumor, spleen, stomach, and kidneys.
Hematological tests: Blood samples for routine blood tests (WBC and RBC) and liver and kidney function tests (BUN and CRE) were collected from the orbital plexus after the last dose.

[3] = test system: CD4+ and CD8+ lymphocyte subtypes; test: Blood CD3+/CD4+ and CD3+/CD8+ by flow cytometry in LLC-bearing mice; assay type: in vivo, C57 mice; settings: blood after last dose, cisplatin 4, Kanglaite 1404, GLP-4 low-dose 130 mg/kg
Method: as §1, with “After the last dose, blood was collected from the orbital plexus to test blood WBC, RBC, liver and kidney function indicators (ALT, AST, BUN, CRE), and CD3^+, CD4^+, and CD8^+ levels. Bone marrow smears were examined, and spleens, thymuses, and tumors were weighed. Histopathological examinations were conducted on the tumor, spleen, stomach, and kidneys.” left out

[4] = Mortality and body weight of 4T1 breast tumor-bearing mice; assay type: in vivo, BALB/c mice
Method: A suspension of 4T1 breast cancer cells was injected subcutaneously into the left shoulder back of 55 healthy female BALB/c mice to create solid tumor models. When the mean tumor volume reached approximately 240 mm^3, the mice were randomized into groups based on tumor volume, and were administered the respective drugs or drug solvents via oral gavage or intraperitoneal injection over 25 consecutive days. Longest and shortest diameters of tumors were measured every three days to calculate tumor volume, and mouse weights were recorded every three days. At the end of the experiment, tumors, spleens, and thymuses were harvested and weighed to calculate tumor, spleen, and thymus indices.

[5] = Mortality, survival time and body weight of H22-bearing mice; assay type: in vivo, C57 mice
Method: A homogenate suspension of H22 hepatoma solid tumors was injected subcutaneously under the axilla of 60 healthy male C57 mice to create a solid tumor model. Once all mouse tumors averaged a volume of about 180 mm^3, mice were randomized into groups based on tumor volume and were administered the respective drugs or drug solvents via oral gavage or intraperitoneal injection for 27 consecutive days. Longest and shortest diameters of tumors were measured every three days to calculate tumor volume, and mouse weights were recorded every three days. At the end of the experiment, tumors, spleens, and thymuses were harvested and weighed to calculate tumor, spleen, and thymus indices.

[6] = test system: Liver cancer (H22) cells, orthotopic; test: Tumors in orthotopic H22-bearing mice by small animal in vivo imaging; design: species or system C57 mice; settings: for Tumor (in vivo imaging): Kanglaite soft capsule 1404 mg/kg
Text: Liver cancer (H22) cells, labeled with Luc fluorescent marker at a concentration of 1×10^7 cells/mL, were initially inoculated into the peritoneal cavity of 8 male C57 mice. After the development of ascites, the ascitic fluid was aseptically extracted, washed with HBSS buffer, centrifuged to discard the supernatant, and stained with Trypan Blue, and cells in the ascitic fluid were counted under a microscope. The cell concentration was adjusted to […] with HBSS buffer and inoculated into the right hepatic region of 51 male C57 mice, at a volume of 10 μL per mouse, to prepare the orthotopic tumor-bearing mice. One week later, the liver tumor formation in mice was detected using a small animal in vivo imaging system. Based on tumor size, the mice were randomized into groups: model control group, cisplatin group (4 mg/kg), Kanglaite soft capsule group (1,404 mg/kg), cisplatin+Kanglaite soft capsule group (4+1,404 mg/kg), cisplatin+GLP-4 low-dose group (4+130 mg/kg), and cisplatin+GLP-4 high-dose group (4+1,170 mg/kg), with 6 mice per group. An additional 6 mice served as the normal control group. The normal control group and the model control group were administered pure water by oral gavage. The chemotherapy group received intraperitoneal injections of cisplatin, and the other groups were administered their respective drug solutions by oral gavage (20 mL/kg) or intraperitoneal injection (10 mL/kg), once daily for 14 consecutive days. After the last dose, blood was collected from the orbital plexus to test blood WBC, RBC, liver and kidney function indicators (ALT, AST, BUN, CRE), and CD3^+/CD4^+, CD3^+/CD8^+ ratios. The spleen, thymus, and tumors were weighed to calculate organ coefficients.
Tumor volume measurement: Tumor volume changes were measured weekly using small animal in vivo imaging technology.

N.N.[Cl][Pt][Cl] [Cisplatin, cisplatin]
Spleen coefficient [1]: 0.456 ± 0.102 ^ %
Thymus coefficient [1]: 0.044 ± 0.020 %
ALT ([2]; LLC-bearing mice, blood after last dose, cisplatin 4, Kanglaite 1404, GLP-4 low-dose 130 mg/kg): 58.25 U/L
AST ([2]; mouse, in vivo, 130 mg/kg): 393.25 U/L
BUN ([2]; mouse, in vivo, 130 mg/kg): 7.91 mmol/L
CRE ([2]; mouse, in vivo, 130 mg/kg): 20.45 µmol/L
RBC ([2]; mouse, in vivo, 130 mg/kg): 6.01 ± 10^12/L
WBC ([2]; mouse, in vivo, 130 mg/kg): 11.09 ± 10^9/L
CD3+/CD4+ [3]: 0.093 ± 0.025
CD3+/CD8+ [3]: 1.571 ± 0.406
Number of deaths ([4]; 10 per group, cisplatin 4 mg/kg): 0
Survival time ([4]; 25 days of dosing, cisplatin 4 mg/kg): 25 ± 0 days
Weight ([4]; D0, cisplatin 4 mg/kg): 18.3 ± 1.3 g
Weight ([4]; D3, cisplatin 4 mg/kg): 17.7 ± 1.1 g
Weight ([4]; D6, cisplatin 4 mg/kg): 15.5 ± 1*^ g
Weight ([4]; D9, cisplatin 4 mg/kg): 15 ± 1.4 g
Weight ([4]; D12, cisplatin 4 mg/kg): 13.8 ± 0.9 g
Weight ([4]; D15, cisplatin 4 mg/kg): 15 ± 1.1 g
Weight ([4]; D19, cisplatin 4 mg/kg): 16.8 ± 1.4 g
Weight ([4]; D22, cisplatin 4 mg/kg): 18 ± 1.5 g
Weight ([4]; D25, cisplatin 4 mg/kg): 18.1 ± 1.6 g
Mortality rate ([4]; cisplatin 4 mg/kg): 0.0%
Number of deaths ([5]; 8 per group, cisplatin 3, GLP-4 low-dose 50 mg/kg): 0
Survival time ([5]; 27 days dosing, cisplatin 3, GLP-4 low-dose 50 mg/kg): 27 ± 0 days
Weight ([5]; D0, cisplatin 3, GLP-4 low-dose 50 mg/kg): 22.8 ± 1^+ g
Weight ([5]; D9, cisplatin 3, GLP-4 low-dose 50 mg/kg): 22.2 ± 0.7^+ g
Weight ([5]; D12, cisplatin 3, GLP-4 low-dose 50 mg/kg): 21.9 ± 0.5^+ g
Weight ([5]; D15, cisplatin 3, GLP-4 low-dose 50 mg/kg): 21.3 ± 1*^+ g
Mortality rate ([5]; cisplatin 3, GLP-4 low-dose 50 mg/kg): 0%
Tumor (in vivo imaging) ([6]; W0, cisplatin 4 mg/kg): 3756000 P/s/cm^2/sr
Tumor (in vivo imaging) ([6]; W1, cisplatin 4 mg/kg): 12898500 P/s/cm^2/sr
Tumor (in vivo imaging) ([6]; W2, cisplatin 4 mg/kg): 11871333 P/s/cm^2/sr
Tumors compared to the model control group (in vivo imaging) ([6]; cisplatin 4, Kanglaite 1404, GLP-4 low-dose 130 mg/kg): significantly decreased on W2
